Measurements from US7977325B2, “3-amino-pyrazolo[3,4b]pyridines as inhibitors of protein tyrosine kinases, their production and use as pharmaceutical agents” (Bayer Schering Pharma AG, priority 2004, dated 2011).
Like-named read-outs stand apart in the source and are kept apart here.

Target: T1, recombinant EphB4 kinase (Homo sapiens, UniProt P54760)
T1 construct: purchased ProQinase GmbH, Freiburg, Germany
T1 sequence (P54760 16-987): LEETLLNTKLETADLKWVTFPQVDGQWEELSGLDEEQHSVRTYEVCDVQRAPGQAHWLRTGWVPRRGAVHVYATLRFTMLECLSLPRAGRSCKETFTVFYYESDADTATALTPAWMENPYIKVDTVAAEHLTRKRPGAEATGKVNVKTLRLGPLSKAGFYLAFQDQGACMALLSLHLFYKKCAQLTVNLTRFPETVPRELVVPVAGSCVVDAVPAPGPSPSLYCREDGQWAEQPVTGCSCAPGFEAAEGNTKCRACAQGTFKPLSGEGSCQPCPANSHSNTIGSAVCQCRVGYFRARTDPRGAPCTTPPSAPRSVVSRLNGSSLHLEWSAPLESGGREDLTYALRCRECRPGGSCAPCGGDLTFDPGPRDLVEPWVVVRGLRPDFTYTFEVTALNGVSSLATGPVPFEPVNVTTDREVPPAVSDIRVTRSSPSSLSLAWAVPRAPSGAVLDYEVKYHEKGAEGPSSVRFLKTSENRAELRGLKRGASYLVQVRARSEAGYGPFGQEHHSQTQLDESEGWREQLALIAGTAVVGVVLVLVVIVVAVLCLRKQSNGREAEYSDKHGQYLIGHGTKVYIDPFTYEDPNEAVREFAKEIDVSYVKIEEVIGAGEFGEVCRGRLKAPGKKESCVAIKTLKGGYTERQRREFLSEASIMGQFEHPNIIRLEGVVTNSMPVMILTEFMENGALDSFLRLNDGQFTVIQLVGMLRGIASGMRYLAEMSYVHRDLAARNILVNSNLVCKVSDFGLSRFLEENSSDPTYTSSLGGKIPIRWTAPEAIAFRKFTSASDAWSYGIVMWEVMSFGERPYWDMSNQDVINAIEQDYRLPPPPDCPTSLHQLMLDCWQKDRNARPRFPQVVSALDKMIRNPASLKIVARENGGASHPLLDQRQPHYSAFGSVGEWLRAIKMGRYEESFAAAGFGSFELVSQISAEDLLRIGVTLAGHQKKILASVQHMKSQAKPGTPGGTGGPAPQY
Assay: Test System for EphB4 (HTRF kinase assay)
Format: biochemical
Conditions: polyGluAlaTyr substrate, 2 μmol of ATP
Description: A mixture that consists of 20 ng/ml of recombinant EphB4 kinase (related to ProQinase GmbH, Freiburg, Germany), 2.67 μg/ml of polyGluAlaTyr, 2 μmol of ATP, 25 mmol of HEPES (pH 7.3), 5 mmol of MgCl2, 1 mmol of MnCl2, 2 mmol of DTT, 0.1 mmol of NaVO4, 1% (v/v) glycerol, 0.02% NP40, EDTA-free protease inhibitors (Complete Fa. [Company] Roche, 1 tablet in 50 ml) is incubated at 20° C. for 10 minutes. Test substances are dissolved in 100% DMSO and introduced in 0.017× volume before the beginning of the reaction. 60 minutes after the addition of 1.7× volume of a solution of 50 mmol of Hepes, pH 7.0, 0.2% BSA, 0.14 μg/ml of PT66-europium, 3.84 μg/ml of SA-XL665, and 75 mmol of EDTA, the batch is measured in a Discovery HTRF-measuring device of the PerkinElmer Company.

[1] = read-out: IC50 of EphB4 kinase inhibition (stated as upper bound)

Structure (SMILES) | IC50 (read-out: IC50 of EphB4 kinase inhibition) | IC50 [1]
COc1cccc(-c2cc(C(C)(C)C)nc3[nH]nc(N)c23)c1 [Example 6, 6-tert-Butyl-4-(3-methoxyphenyl)-1H-pyrazolo[3,4b]pyridin-3-ylamine] | 6.1 µM | < 10 µM
Cc1ccc(-c2cc(C3CCC(=O)CC3)nc3[nH]nc(N)c23)cc1 [Example 12, 4-(3-Amino-4-p-tolyl-1H-pyrazolo[3,4b]pyridin-6-yl)-cyclohexanone] |  | < 10 µM
Cc1ccc(-c2cc(C3CCC(N4CCNCC4)CC3)nc3[nH]nc(N)c23)cc1 (centres unmarked) [Example 14, 6-(4-piperazin-1-yl-cyclohexyl)-4-p-tolyl-1H-pyrazolo[3,4b]pyridin-3-ylamine] |  | < 10 µM
Cc1ccc(-c2cc(C3CCC(N4CCCCC4)CC3)nc3[nH]nc(N)c23)cc1 (centres unmarked) [Example 16, 6-(4-Piperidin-1-yl-cyclohexyl)-4-p-tolyl-1H-pyrazolo[3,4b]pyridin-3-ylamine] |  | < 10 µM
COc1cc(O)cc(-c2cc(-c3ccncc3)nc3[nH]nc(N)c23)c1 [Example 33, 3-(3-Amino-6-pyridin-4-yl-1H-pyrazolo[3,4-b]pyridin-4-yl)-5-methoxyphenol] |  | < 10 µM
Cc1ccc(O)cc1-c1cc(-c2ccncc2)nc2[nH]nc(N)c12 [Example 35, 3-(3-Amino-6-pyridin-4-yl-1H-pyrazolo[3,4-b]pyridin-4-yl)-4-methyl-phenol] |  | < 10 µM
COc1cc(OC)cc(-c2cc(C(C)(C)C)nc3[nH]nc(N)c23)c1 [Example 39, 6-tert-Butyl-4-(3,5-dimethoxyphenyl)-1H-pyrazolo[3,4-b]pyridin-3-ylamine] |  | < 10 µM
CC(C)Oc1cc(O)cc(-c2cc(C(C)(C)C)nc3[nH]nc(N)c23)c1 [Example 40] |  | < 10 µM
CC(C)(C)c1cc(-c2cc(O)ccc2[N+](=O)[O-])c2c(N)n[nH]c2n1 [Example 41, 3-(3-Amino-6-tert-butyl-1H-pyrazolo[3,4b]pyridin-4-yl)-4-nitro-phenol] |  | < 10 µM
Nc1n[nH]c2nc(C3CC3)cc(-c3ccc(Cl)c(Cl)c3)c12 [Example 51, 6-Cyclopropyl-4-(3,4-dichlorophenyl)-1H-pyrazolo[3,4-b]pyridin-3-ylamine] |  | < 10 µM
